Measured values taken from patent publication US20150105252A1, “SUBSTITUTED PYRAZOLES AS HERBICIDES” (E I DU PONT DE NEMOURS AND COMPANY, priority 2013, published 2015).

What was measured:
foxtail, giant = assay: Test A preemergence; assay type: in vivo, Setaria faberii; settings: preemergence
Outline: (§1)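 Seeds were sown in a loam soil–sand blend and given a directed soil spray preemergence; postemergence plants at 2–10 cm, one- to two-leaf stage, were sprayed with compound in non-phytotoxic solvent with surfactant. After about 10 days in a greenhouse, injury was visually rated against untreated controls (0 = no effect, 100 = complete control).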

barnyardgrass [1] = assay: Test A postemergence; assay type: in vivo, Echinochloa crus-galli
Outline: as §1

rice = assay: Test B flood; assay type: in vivo, Oryza sativa; settings: 250 g ai/ha, visual rating on 0 to 100 scale (0 no effect, 100 complete control), 13 to 15 days
Outline: (§2)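 Visual ratings (0 = no effect, 100 = complete control) versus untreated controls were taken 13–15 days after treatment of greenhouse plants. Treatment was added to paddy water held at 3 cm depth on 2-leaf-stage seedlings.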

ducksalad = assay: Test B flood; assay type: in vivo, Heteranthera limosa; settings: 250 g ai/ha, visual rating on 0 to 100 scale (0 no effect, 100 complete control), 13 to 15 days
Outline: as §2

barnyardgrass [2] = assay: Test B flood; assay type: in vivo, Echinochloa crus-galli; settings: 250 g ai/ha, visual rating on 0 to 100 scale (0 no effect, 100 complete control), 13 to 15 days
Outline: as §2

waterhemp = assay: Test C preemergence; assay type: in vivo, Amaranthus rudis
Outline: (§3)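 Visual control ratings on a 0–100 scale (100 = complete control) made against untreated controls after 13 to 15 days in greenhouse. Compounds applied in surfactant-containing solvent mixture, either preemergence to loam/sand-sown seeds or postemergence to 1- to 4-leaf plants (2–18 cm) in peat medium.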

johnsongrass = assay: Test C postemergence; assay type: in vivo, Sorghum halepense; settings: for Plant response rating (scale of 0 to 100 where 0 is no effect and 100 is complete control), Johnsongrass: Postemergence, 31 g ai/ha, visually evaluated after 13 to 15 days; for Johnsongrass plant response rating / Plant response rating, Johnsongrass: postemergence; for Johnsongrass plant response rating: 62 g ai/ha, scale 0 to 100
Outline: as §3

lambsquarters = assay: Test C postemergence; assay type: in vivo, Chenopodium album; settings: for Plant response rating (scale of 0 to 100 where 0 is no effect and 100 is complete control), Lambsquarters: Postemergence, 31 g ai/ha, visually evaluated after 13 to 15 days; for Lambsquarters plant response rating / Plant response rating, Lambsquarters: postemergence; for Lambsquarters plant response rating: 62 g ai/ha, scale 0 to 100
Outline: as §3

nutsedge, yellow = assay: Test C postemergence; assay type: in vivo, Cyperus esculentus; settings: for Plant response rating (scale of 0 to 100 where 0 is no effect and 100 is complete control), Nutsedge, Yellow: Postemergence, 31 g ai/ha, visually evaluated after 13 to 15 days; for Nutsedge, Yellow plant response rating / Plant response rating, Nutsedge, Yellow: postemergence; for Nutsedge, Yellow plant response rating: 62 g ai/ha, scale 0 to 100
Outline: as §3

pigweed = assay: Test C postemergence; assay type: in vivo, Amaranthus retroflexus; settings: for Pigweed plant response rating / Plant response rating, Pigweed: postemergence; for Pigweed plant response rating: 62 g ai/ha, scale 0 to 100
Outline: as §3

oilseed rape = assay: Test C postemergence; assay type: in vivo, Brassica napus; settings: for Oilseed Rape plant response rating / Plant response rating, Oilseed Rape: postemergence; for Oilseed Rape plant response rating: 62 g ai/ha, scale 0 to 100
Outline: as §3

oat, wild = assay: Test C postemergence; assay type: in vivo, Avena fatua; settings: for Plant response rating (scale of 0 to 100 where 0 is no effect and 100 is complete control), Oat, Wild: Postemergence, 31 g ai/ha, visually evaluated after 13 to 15 days; for Oat, Wild plant response rating / Plant response rating, Oat, Wild: postemergence; for Oat, Wild plant response rating: 62 g ai/ha, scale 0 to 100
Outline: as §3

kochia = assay: Test C postemergence; assay type: in vivo, Kochia scoparia; settings: for Plant response rating (scale of 0 to 100 where 0 is no effect and 100 is complete control), Kochia: Postemergence, 31 g ai/ha, visually evaluated after 13 to 15 days; for Kochia plant response rating / Plant response rating, Kochia: postemergence; for Kochia plant response rating: 62 g ai/ha, scale 0 to 100
Outline: as §3

velvetleaf = assay: Test C postemergence; assay type: in vivo, Abutilon theophrasti; settings: for Velvetleaf plant response rating / Plant response rating, Velvetleaf: postemergence; for Velvetleaf plant response rating: scale 0 to 100
Outline: as §3

[3] = 500 g ai/ha, visual injury after approx. 10 days, 0 to 100 scale (0 no effect, 100 complete control)
[4] = postemergence, 125 g ai/ha, about 10 days, visual rating on 0 to 100 scale (0 no effect, 100 complete control)
[5] = preemergence, 31 g ai/ha, visual rating, scale 0 to 100 (0 no effect, 100 complete control), 13 to 15 days
[6] = preemergence, 62 g ai/ha, scale 0 to 100 (0 no effect, 100 complete control), 13 to 15 days
[7] = 250 g ai/ha, scale 0 to 100 (0 no effect, 100 complete control)
[8] = 125 g ai/ha, scale 0 to 100, 0 no effect, 100 complete control
[9] = Postemergence, 31 g ai/ha, visually evaluated after 13 to 15 days

CCCc1cc(C(=O)NCC(F)(F)F)nn1Cc1ccnc(C(F)(F)F)c1 [Compound 105]
Foxtail, Giant plant response rating (foxtail, giant; 125 g ai/ha, visual injury, 0 to 100 scale, approx. 10 days): 100 | Foxtail, Giant plant response rating (foxtail, giant; [3]): 100 | Barnyardgrass plant response rating (barnyardgrass [1]; Postemergence, 500 g ai/ha, visual rating after approx. 10 days, 0 to 100 scale (0 no effect, 100 complete control)): 100 | Barnyardgrass plant response rating (barnyardgrass [1]; [4]): 90 | Plant response rating, Rice (rice): 90 | Plant response rating, Ducksalad (ducksalad): 95 | Plant response rating, Barnyardgrass (barnyardgrass [2]): 90 | Plant response rating (scale of 0 to 100), Waterhemp (waterhemp; Preemergence, 250 g ai/ha): 100 | Waterhemp plant response rating (waterhemp; [5]): 100 | Waterhemp plant response rating (waterhemp; [6]): 100 | Waterhemp plant response rating (waterhemp; preemergence, 125 g ai/ha, scale 0 to 100, 0 is no effect, 100 is complete control): 100 | Plant response rating (scale of 0 to 100 where 0 is no effect and 100 is complete control), Johnsongrass (johnsongrass): 5 | Johnsongrass plant response rating (johnsongrass): 35 | Plant response rating, Johnsongrass (johnsongrass; [7]): 75 | Plant response rating, Johnsongrass (johnsongrass; [8]): 45 | Plant response rating (scale of 0 to 100 where 0 is no effect and 100 is complete control), Lambsquarters (lambsquarters): 75 | Lambsquarters plant response rating (lambsquarters): 95 | Plant response rating, Lambsquarters (lambsquarters; [7]): 98 | Plant response rating, Lambsquarters (lambsquarters; [8]): 95 | Plant response rating (scale of 0 to 100 where 0 is no effect and 100 is complete control), Nutsedge, Yellow (nutsedge, yellow): 5 | Nutsedge, Yellow plant response rating (nutsedge, yellow): 5 | Plant response rating, Nutsedge, Yellow (nutsedge, yellow; [7]): 40 | Plant response rating, Nutsedge, Yellow (nutsedge, yellow; [8]): 20 | Plant response rating (scale of 0 to 100 where 0 is no effect and 100 is complete control), Pigweed (pigweed; [9]): 75 | Pigweed plant response rating (pigweed): 85 | Plant response rating, Pigweed (pigweed; [7]): 90 | Plant response rating, Pigweed (pigweed; [8]): 85 | Plant response rating (scale of 0 to 100 where 0 is no effect and 100 is complete control), Oilseed Rape (oilseed rape; [9]): 45 | Oilseed Rape plant response rating (oilseed rape): 50 | Plant response rating, Oilseed Rape (oilseed rape; [7]): 90 | Plant response rating, Oilseed Rape (oilseed rape; [8]): 85 | Plant response rating (scale of 0 to 100 where 0 is no effect and 100 is complete control), Oat, Wild (oat, wild): 25 | Oat, Wild plant response rating (oat, wild): 30 | Plant response rating, Oat, Wild (oat, wild; [7]): 60 | Plant response rating, Oat, Wild (oat, wild; [8]): 45 | Plant response rating (scale of 0 to 100 where 0 is no effect and 100 is complete control), Kochia (kochia): 90 | Kochia plant response rating (kochia): 90 | Plant response rating, Kochia (kochia; [7]): 95 | Plant response rating, Kochia (kochia; [8]): 90 | Plant response rating (scale of 0 to 100 where 0 is no effect and 100 is complete control), Velvetleaf (velvetleaf; [9]): 40 | Velvetleaf plant response rating (velvetleaf; 62 g ai/ha): 55 | Plant response rating, Velvetleaf (velvetleaf; [7]): 75 | Plant response rating, Velvetleaf (velvetleaf; [8]): 70

CCCc1cc(C(=O)NOCC)nn1Cc1ccnc(C(F)(F)F)c1 [Compound 185]
Foxtail, Giant plant response rating (0 to 100 scale) (foxtail, giant; 125 g ai/ha, visual injury approx. 10 days after treatment): 100 | Foxtail, Giant plant response rating (foxtail, giant; [3]): 100 | Barnyardgrass plant response rating (barnyardgrass [1]; Postemergence, 500 g ai/ha, 0 to 100 scale (0 no effect, 100 complete control)): 90 | Barnyardgrass plant response rating (barnyardgrass [1]; [4]): 80 | Plant response rating, Rice (rice): 10 | Plant response rating, Ducksalad (ducksalad): 50 | Plant response rating, Barnyardgrass (barnyardgrass [2]): 20 | Waterhemp plant response rating (waterhemp; [5]): 100 | Waterhemp plant response rating (waterhemp; [6]): 100 | Plant response rating, Waterhemp (waterhemp; preemergence, 125 g ai/ha, 13 to 15 days, scale 0 to 100, 0 = no effect, 100 = complete control): 100 | Waterhemp plant response rating (waterhemp; preemergence, 250 g ai/ha, scale 0 to 100, 0 is no effect, 100 is complete control): 100 | Plant response rating (scale of 0 to 100 where 0 is no effect and 100 is complete control), Johnsongrass (johnsongrass): 0 | Johnsongrass plant response rating (johnsongrass): 0 | Plant response rating, Johnsongrass (johnsongrass; [7]): 5 | Plant response rating, Johnsongrass (johnsongrass; [8]): 0 | Plant response rating (scale of 0 to 100 where 0 is no effect and 100 is complete control), Lambsquarters (lambsquarters): 70 | Lambsquarters plant response rating (lambsquarters): 35 | Plant response rating, Lambsquarters (lambsquarters; [7]): 65 | Plant response rating, Lambsquarters (lambsquarters; [8]): 45 | Plant response rating (scale of 0 to 100 where 0 is no effect and 100 is complete control), Nutsedge, Yellow (nutsedge, yellow): 0 | Nutsedge, Yellow plant response rating (nutsedge, yellow): 0 | Plant response rating, Nutsedge, Yellow (nutsedge, yellow; [7]): 10 | Plant response rating, Nutsedge, Yellow (nutsedge, yellow; [8]): 5 | Pigweed plant response rating (pigweed): 50 | Plant response rating, Pigweed (pigweed; [7]): 85 | Plant response rating, Pigweed (pigweed; [8]): 75 | Oilseed Rape plant response rating (oilseed rape): 40 | Plant response rating, Oilseed Rape (oilseed rape; [7]): 70 | Plant response rating, Oilseed Rape (oilseed rape; [8]): 50 | Plant response rating (scale of 0 to 100 where 0 is no effect and 100 is complete control), Oat, Wild (oat, wild): 5 | Oat, Wild plant response rating (oat, wild): 10 | Plant response rating, Oat, Wild (oat, wild; [7]): 15 | Plant response rating, Oat, Wild (oat, wild; [8]): 10 | Plant response rating (scale of 0 to 100 where 0 is no effect and 100 is complete control), Kochia (kochia): 50 | Kochia plant response rating (kochia): 60 | Plant response rating, Kochia (kochia; [7]): 80 | Plant response rating, Kochia (kochia; [8]): 75 | Plant response rating, Velvetleaf (velvetleaf; [7]): 35 | Velvetleaf plant response rating (velvetleaf): 25
